Test results taken from article PMC6928688, “Identification of Novel PI3Kδ Selective Inhibitors by SVM-Based Multistage Virtual Screening and Molecular Dynamics Simulations” (International Journal of Molecular Sciences, 2019).
pIC50: −log10 of the molar value. Entries after “also recorded” stand apart in the source; their conditions may differ. Where two headings read alike, the source gives them in different places.

Assays:
Assay type in all cases: biochemical
recombinant PI3Kδ kinase [1] = biological target: T1, recombinant PI3Kδ kinase (Homo sapiens, UniProt O00329); assay: Cell free PI3Kδ kinase activity, ADP-Glo chemiluminescence assay
T1 sequence (O00329 whole entry): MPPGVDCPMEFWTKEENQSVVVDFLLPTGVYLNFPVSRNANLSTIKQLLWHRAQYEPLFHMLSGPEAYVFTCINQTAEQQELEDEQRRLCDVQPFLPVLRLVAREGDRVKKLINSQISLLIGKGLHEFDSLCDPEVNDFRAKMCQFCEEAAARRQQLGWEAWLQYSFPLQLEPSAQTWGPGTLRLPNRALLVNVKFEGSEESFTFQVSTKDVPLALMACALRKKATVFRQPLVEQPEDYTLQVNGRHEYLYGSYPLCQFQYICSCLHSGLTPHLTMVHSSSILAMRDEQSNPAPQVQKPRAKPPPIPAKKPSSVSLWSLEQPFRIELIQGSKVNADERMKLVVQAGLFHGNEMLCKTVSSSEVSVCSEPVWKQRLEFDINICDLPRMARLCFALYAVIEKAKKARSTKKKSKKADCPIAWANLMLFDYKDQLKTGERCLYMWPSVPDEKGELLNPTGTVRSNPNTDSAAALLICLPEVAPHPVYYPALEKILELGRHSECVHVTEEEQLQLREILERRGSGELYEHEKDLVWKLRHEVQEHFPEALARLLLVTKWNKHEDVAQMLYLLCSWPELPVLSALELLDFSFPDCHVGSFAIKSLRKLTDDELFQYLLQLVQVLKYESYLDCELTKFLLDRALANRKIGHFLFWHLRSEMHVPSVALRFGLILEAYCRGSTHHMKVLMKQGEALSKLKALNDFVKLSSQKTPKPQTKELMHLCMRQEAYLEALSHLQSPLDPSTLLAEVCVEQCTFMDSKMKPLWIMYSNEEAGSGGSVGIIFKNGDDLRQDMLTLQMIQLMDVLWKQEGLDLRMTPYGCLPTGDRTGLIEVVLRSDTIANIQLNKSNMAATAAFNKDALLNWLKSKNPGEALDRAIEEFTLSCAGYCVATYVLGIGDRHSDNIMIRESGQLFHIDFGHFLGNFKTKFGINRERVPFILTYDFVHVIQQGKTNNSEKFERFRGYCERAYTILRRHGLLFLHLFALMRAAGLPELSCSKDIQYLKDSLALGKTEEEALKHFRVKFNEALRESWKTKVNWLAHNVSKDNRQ
T1 sequence (P27986 whole entry partner): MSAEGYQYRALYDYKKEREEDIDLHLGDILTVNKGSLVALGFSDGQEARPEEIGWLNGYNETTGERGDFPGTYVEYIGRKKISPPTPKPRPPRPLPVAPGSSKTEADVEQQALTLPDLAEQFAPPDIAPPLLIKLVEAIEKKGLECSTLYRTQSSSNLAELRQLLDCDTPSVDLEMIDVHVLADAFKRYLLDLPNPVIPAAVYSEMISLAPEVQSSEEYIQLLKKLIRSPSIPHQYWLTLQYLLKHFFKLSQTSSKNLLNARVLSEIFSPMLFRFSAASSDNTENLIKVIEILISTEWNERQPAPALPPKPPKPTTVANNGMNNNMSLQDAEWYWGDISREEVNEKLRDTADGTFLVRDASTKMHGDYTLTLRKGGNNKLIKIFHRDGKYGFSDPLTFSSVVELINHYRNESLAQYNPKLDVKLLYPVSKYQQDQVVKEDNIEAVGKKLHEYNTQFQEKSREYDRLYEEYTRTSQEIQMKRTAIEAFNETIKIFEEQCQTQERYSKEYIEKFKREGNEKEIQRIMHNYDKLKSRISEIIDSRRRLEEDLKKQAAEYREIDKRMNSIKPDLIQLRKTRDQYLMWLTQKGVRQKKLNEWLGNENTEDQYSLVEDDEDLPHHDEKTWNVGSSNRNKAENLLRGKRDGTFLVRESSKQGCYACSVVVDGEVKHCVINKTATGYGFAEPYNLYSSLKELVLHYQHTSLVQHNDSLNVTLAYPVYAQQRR
Description: The chemiluminescence method was used to determine the inhibitory effect of the 15 hit compounds on PI3Kδ (Table 5). […] For 14317, the reason for its high activity was probably the long side chain on its guanine, which was the same as the reported PI3Kδ selective inhibitor Compound 1 (idelalisib) and Compound 7 (GNE-293). For Compounds 9 and 10, the reason the pyridazinone skeleton made them so active requires further study. Finally, the two compounds with the novel skeleton were selected for the subsequent molecular dynamics (MD) simulations. […]
The inhibitory activities of inhibitors against PI3Kδ were determined by the ADP-Glo assay. The recombinant PI3Kδ kinase was diluted to 2.2 μg/mL using reaction buffer (50 mM HEPES, pH 7.5, 10 mM MgCl2, 0.1 mg/mL BSA, 2 mM DTT, 1% DMSO), and ATP was diluted with reaction buffer (10 mM) to 250 μM, and the test compound and positive drug (idelalisib) were formulated into four concentration-gradient solutions (6 × 10^−2 M, 6 × 10^−4 M, 6 × 10^−6 M, 6 × 10^−8 M). The reaction was started by sequentially adding 2 μL of an ATP solution, 1 μL of a drug solution, and 2 μL of an enzyme solution in 96 wells. The assay was conducted for 1 h at 37 °C before the addition of 5 μL ADP-Glo reagent and incubation for 40 min at room temperature. A 10 μL amount of kinase detection reagent (Promega, Beijing, China) was added and incubated for 30 min at room temperature before the luminescence value was measured using a chemiluminescence module of a full-wavelength multi-function microplate reader (PerkinElmer, Singapore).

PI3Kα = PI3Kα (Homo sapiens, UniProt P42336); assay: PI3K isoform selectivity, chemiluminescence kinase assay (α); settings: isoform selectivity experiment
Chain of PI3Kα (P42336 whole entry, species assumed, canonical isoform): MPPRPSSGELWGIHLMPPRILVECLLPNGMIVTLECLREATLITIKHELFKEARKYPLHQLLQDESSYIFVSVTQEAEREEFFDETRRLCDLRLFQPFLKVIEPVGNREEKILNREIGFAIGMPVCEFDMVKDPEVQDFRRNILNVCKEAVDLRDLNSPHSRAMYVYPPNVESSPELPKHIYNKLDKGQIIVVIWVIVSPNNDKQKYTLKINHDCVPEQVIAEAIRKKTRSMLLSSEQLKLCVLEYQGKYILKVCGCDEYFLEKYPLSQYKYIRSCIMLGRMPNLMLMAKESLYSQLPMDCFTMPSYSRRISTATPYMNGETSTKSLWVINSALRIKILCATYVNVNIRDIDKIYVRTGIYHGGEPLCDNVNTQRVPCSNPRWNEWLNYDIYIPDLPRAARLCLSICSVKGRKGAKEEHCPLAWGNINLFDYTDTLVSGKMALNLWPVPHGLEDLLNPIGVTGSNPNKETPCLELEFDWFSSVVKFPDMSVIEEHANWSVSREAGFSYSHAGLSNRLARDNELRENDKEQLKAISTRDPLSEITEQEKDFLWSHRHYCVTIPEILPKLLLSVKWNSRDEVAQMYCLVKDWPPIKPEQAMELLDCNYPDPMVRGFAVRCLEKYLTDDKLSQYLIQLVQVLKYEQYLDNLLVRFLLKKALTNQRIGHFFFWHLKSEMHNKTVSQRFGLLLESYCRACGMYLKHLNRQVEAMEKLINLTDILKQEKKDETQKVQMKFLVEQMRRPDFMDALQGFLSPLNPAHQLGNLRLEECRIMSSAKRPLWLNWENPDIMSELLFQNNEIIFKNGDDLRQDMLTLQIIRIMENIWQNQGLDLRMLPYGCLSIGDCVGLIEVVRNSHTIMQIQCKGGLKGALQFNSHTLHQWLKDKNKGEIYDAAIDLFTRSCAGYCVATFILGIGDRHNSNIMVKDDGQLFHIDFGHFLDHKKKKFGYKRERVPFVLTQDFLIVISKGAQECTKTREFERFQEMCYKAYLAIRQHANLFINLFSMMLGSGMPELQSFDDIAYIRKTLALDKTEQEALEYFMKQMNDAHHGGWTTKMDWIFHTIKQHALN
Chain of PI3Kα (P27986 whole entry partner, species assumed, canonical isoform): as the sequence (P27986 whole entry partner) above

recombinant PI3Kδ kinase [2] = biological target: T1, recombinant PI3Kδ kinase; assay: Cell free PI3Kδ kinase activity, ADP-Glo chemiluminescence assay; settings: PI3Kδ versus α, β, γ
PI3Kγ = PI3Kγ (Homo sapiens, UniProt P48736); assay: PI3K isoform selectivity, chemiluminescence kinase assay (γ); settings: isoform selectivity experiment
Chain of PI3Kγ (P48736 whole entry, canonical isoform): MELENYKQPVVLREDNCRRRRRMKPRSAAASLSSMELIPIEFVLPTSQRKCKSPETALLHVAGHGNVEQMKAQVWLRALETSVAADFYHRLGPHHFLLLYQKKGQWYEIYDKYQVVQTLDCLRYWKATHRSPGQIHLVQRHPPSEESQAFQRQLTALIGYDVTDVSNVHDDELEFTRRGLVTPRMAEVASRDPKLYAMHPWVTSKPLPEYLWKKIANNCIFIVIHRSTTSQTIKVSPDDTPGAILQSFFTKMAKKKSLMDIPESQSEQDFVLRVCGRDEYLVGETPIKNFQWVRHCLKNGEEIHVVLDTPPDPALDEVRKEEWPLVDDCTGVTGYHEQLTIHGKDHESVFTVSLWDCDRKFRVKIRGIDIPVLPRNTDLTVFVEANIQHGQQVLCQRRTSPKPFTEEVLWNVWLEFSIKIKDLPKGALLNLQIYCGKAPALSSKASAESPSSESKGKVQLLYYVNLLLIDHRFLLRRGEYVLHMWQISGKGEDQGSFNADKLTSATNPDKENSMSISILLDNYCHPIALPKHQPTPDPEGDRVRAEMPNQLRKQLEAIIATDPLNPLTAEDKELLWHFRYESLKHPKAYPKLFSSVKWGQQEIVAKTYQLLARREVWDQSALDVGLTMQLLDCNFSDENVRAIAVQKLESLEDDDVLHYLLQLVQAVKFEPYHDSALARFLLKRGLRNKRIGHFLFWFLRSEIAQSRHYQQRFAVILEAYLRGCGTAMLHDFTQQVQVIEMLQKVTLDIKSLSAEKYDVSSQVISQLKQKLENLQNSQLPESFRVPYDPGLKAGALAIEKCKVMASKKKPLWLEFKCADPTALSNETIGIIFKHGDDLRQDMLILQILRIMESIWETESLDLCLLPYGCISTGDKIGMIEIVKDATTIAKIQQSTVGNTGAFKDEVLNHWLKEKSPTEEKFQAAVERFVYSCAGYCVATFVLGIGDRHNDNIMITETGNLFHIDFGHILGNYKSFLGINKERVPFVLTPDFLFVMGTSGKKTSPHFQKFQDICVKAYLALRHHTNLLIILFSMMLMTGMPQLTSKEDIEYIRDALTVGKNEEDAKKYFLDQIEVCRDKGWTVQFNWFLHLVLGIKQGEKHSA

PI3Kβ = PI3Kβ (Homo sapiens, UniProt P42338); assay: PI3K isoform selectivity, chemiluminescence kinase assay (β); settings: isoform selectivity experiment
Chain of PI3Kβ (P42338 whole entry, canonical isoform): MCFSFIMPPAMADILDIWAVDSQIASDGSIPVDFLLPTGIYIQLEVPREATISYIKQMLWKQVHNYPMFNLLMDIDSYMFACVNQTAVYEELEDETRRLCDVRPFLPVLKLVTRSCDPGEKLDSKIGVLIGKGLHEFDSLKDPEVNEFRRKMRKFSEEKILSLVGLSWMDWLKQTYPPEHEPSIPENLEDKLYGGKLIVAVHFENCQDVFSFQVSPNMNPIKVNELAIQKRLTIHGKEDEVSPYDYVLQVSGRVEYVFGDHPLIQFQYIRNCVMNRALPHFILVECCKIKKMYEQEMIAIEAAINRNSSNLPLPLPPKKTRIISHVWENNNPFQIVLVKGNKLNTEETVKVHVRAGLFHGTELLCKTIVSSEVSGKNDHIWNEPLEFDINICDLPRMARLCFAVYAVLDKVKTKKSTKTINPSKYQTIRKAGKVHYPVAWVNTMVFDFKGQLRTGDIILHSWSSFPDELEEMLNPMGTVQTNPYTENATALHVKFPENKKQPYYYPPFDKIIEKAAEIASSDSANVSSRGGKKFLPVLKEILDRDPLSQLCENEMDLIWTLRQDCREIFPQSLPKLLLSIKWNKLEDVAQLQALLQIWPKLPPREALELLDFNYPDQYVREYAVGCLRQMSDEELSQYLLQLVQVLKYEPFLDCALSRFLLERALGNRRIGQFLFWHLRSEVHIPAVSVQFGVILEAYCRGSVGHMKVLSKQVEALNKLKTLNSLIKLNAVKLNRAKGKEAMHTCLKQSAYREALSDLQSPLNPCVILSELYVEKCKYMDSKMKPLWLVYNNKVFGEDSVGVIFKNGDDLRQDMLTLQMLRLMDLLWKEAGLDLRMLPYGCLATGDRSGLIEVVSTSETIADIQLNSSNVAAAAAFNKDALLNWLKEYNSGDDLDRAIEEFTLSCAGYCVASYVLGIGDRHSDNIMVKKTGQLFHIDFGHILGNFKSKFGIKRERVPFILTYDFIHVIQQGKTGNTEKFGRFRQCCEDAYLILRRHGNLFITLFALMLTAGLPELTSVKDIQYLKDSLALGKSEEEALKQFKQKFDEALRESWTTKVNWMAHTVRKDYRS
Chain of PI3Kβ (P27986 whole entry partner, canonical isoform): as the sequence (P27986 whole entry partner) above

[3] = 15 hit compounds from NCI database, chemiluminescence method, read-out: PI3Kδ IC50

Row | Structure (SMILES) | pIC50 (recombinant PI3Kδ kinase [1]; [3]) | also measured
1 | CC/C(=N\Nc1cn[nH]c(=O)c1Br)c1ccccc1 [Compound 9] | 4.14 | 
2 | C/C(=N\Nc1cn[nH]c(=O)c1Br)c1ccccc1 [Compound 10] | 4.72 | pIC50 (PI3Kα): 4.12; PI3K isoform selectivity (recombinant PI3Kδ kinase [2]): significant selectivity; also recorded: high isoform selectivity; pIC50 (PI3Kγ): 3.65; pIC50 (PI3Kβ): 3.73
3 | CCN(CC)CCOc1nc2c(c(=O)n(C)c(=O)n2C)n1C [Compound 14317] | 4.55 | 
4 | CCOC(=O)c1cc(Sc2ccccc2)nc2ccccc12 [Compound 25679] | 3.54 | 
5 | COc1c2c(c3c(c1OC)c(=O)c1ccccc1n3C)OCO2 [Compound 34758] | 3.32 | 
6 | CCOC(=O)Nc1ccc2c(c1Cl)C(=O)c1ccccc1C2=O [Compound 39951] | 3.28 | 
7 | CC(=O)Nc1cc2c(cc1Cl)-c1ccc(Cl)cc1C2=O [Compound 57442] | 3.30 | 
8 | CC(=O)Nc1cc2c(cc1Br)-c1ccc(F)cc1C2=O [Compound 73075] | 3.61 | 
9 | O=C1c2ccccc2-c2cc(Br)c(NC(=O)C(F)(F)F)cc21 [Compound 80144] | 3.09 | 
10 | COc1cc(OC)c(OC)cc1/C=C/c1ccnc2ccccc12 [Compound 80756] | 3.72 | 
11 | CSc1cc2c(cc1NC(C)=O)C(=O)c1cc(F)ccc1-2 [Compound 109638] | 3.77 | 
12 | O=c1cc(N2CCOCC2)oc2c(-c3ccccc3)cccc12 [LY294002, reference compound] |  | pIC50 (recombinant PI3Kδ kinase [1]; read-out: PI3K IC50 δ): 5.46
